The values that follow come from US8652536B2, “Skin clarifying complex, use of said complex, cosmestic or pharmaceutical composition comprising said complex and method for application thereof” (Natura Cosmeticos S.A., priority 2009, dated 2014).

Each structure is given as a SMILES string.

What all share (type): cell-based
The subject of data set [1] is line B16 melanocytes. Put plainly: cells. The conditions noted are these: for amount of melanin, % control: vs Control DMSO. The protocol: The assay methodology for the test lasted for five days in which, initially, line B16 melanocytes were plated on 12 well-conditioned containers, at a rate of 75,000 cells/plate.
On the three following days, 10mg (11 μl to linoleic acid) of component in the mixture were diluted in 100 μl of DMSO (dimethyl-sulfoxide) and, then, 9.9 ml of DMEM (culture medium) serum free were added so as to finally obtain 1 mg/ml of stock solution.
Sequentially, these solutions were incubated at 37° C. to assist solubilization of the samples. 10% bovine fetal serum (BFS) were added to the final dilution.
The actives are: gallic acid and linoleic acid.
On day five of the test the cells were divided into two steps of characterization: • Assessment of melanin in which the cells were first “washed” with PBS and then the cellular layer was dissolved into 500 μl of 3N NaOH and the suspension homogenized by pipetting. Two 200 μl portions of suspension were plated for optical reading at 400 nm.

For data set [2], the system named is culture medium corresponding to the epidermis. Put plainly: Melanin extracted from epidermis culture after 6 days of treatment. The note with it: 6 days treatment, kojic acid 250 μM, A 25 μg/ml, B 75 μg/ml, A + B 25 + 75 μg/ml; for melanin extracted from epidermis, Mean (%): % of control; for Reduction (%) of melanin extracted from epidermis: vs control. The protocol: In another example samples containing an extract of Brazilian […] extract (A), linoleic acid (B) and a mixture of the active ingredients linoleic acid and gallic acid (A+B), respectively, were compared to a control and to kojic acid as far as the reduction of the amount of melanin is concerned. Each sample was applied to a culture medium corresponding to the epidermis and the concentrations of melanin were measured after 6 days of treatment.

For data set [3], the system named is 3T3 cells. The data set is described as follows: Cytotoxicity assay, Neutral Red, 24 hours incubation.
Data set [4] concerns 3T3 cells. Put plainly: Phototoxicity test, Neutral Red capture with and without UVA radiation. The note with it: with and without non-cytotoxic dose of UVA. The protocol:
Cytotoxicity assay allows determining the cytotoxic concentration of an active, when 3T3 cells are incubated therewith for 24 hours. Toxicity is determined as a function of cell viability, monitored by incubation of 3T3 cells with Neutral Red, and essential dye incorporated by living cells 24 hours 24 hours after contacting the active. Such assessment uses methodologies established by the National Institute of Health (NIH), USA, acknowledged internationally (Guidance NIH, 2001). The phototoxicity test is based on a comparison of the toxicity of an active in the presence and absence of a non-cytotoxic dose of UVA radiation. Phototoxicity is measured by Neutral Red capture by those cells surviving incubation with the active, according to a protocol already established and standardized by COLIPA and OECD (ZEBET/ECVAM/COLIPA, 1998; OECD, 2004). Phototoxicity/photoirritation is defined as the toxic response caused after a first exposure of the skin to certain products/actives and the subsequent exposure to sun light or induced by an irradiation of the skin after systemic administration of an active/product.

Consider `OC[C@H]1O[C@@H](Oc2ccc(O)cc2)[C@H](O)[C@@H](O)[C@@H]1O` [Arbutin, reference compound], for which the “melanin synthesis, % control” value in data set [1] (comparison with pharmaceutical and market actives at the same concentration, printed 0.01 mg/ml, α-MSH, FIG. 4) was found to be 82.5 % control.
Take `O=c1cc(CO)occ1O` [Kojic acid, reference compound]: in data set [2], the “melanin extracted from epidermis, Mean (%)” value is 78.98%; the “melanin extracted from epidermis, Mean” value turned out to be 20.95 µg/mL; the “Reduction (%) of melanin extracted from epidermis” value (from here on “Reduction (%) of melanin extracted”) was 21.02%. Also, in data set [2] (listed as kojic acid), the “Reduction (%) of melanin extracted” value is reported as “about 21.02%”.
Regarding `CCCCC/C=C\C/C=C\CCCCCCCC(=O)O` [linoleic acid], the inhibition at 25 µg/mL in data set [1] (Melanocyte, active alone at 0.025 mg/ml (its concentration in the mixture), read-out: inhibition of melanin by active alone) turned out to be 8.1%. Further, the inhibition at 50 µg/mL in data set [1] (Melanocyte, active alone at 0.05 mg/ml (its concentration in the mixture), read-out: inhibition of melanin by active alone) is 15.9%. In data set [1] (Melanocyte, active alone at 0.075 mg/ml (its concentration in the mixture), read-out: inhibition of melanin by active alone), the inhibition at 75 µg/mL was 19%. The “amount of melanin, % control” value in data set [1] (active alone at 0.025 mg/ml, α-MSH) is 91.9% control; in data set [1] (active alone at 0.05 mg/ml, α-MSH), 84.1% control; in data set [1] (active alone at 0.075 mg/ml, α-MSH) it was 81.0% control. Also, in data set [2], the “melanin extracted from epidermis, Mean (%)” value was found to be 80.67%. For the same compound, the “melanin extracted from epidermis, Mean” value in data set [2] was found to be 21.4 µg/mL. For the same compound, the “Reduction (%) of melanin extracted” value in data set [2] (listed as B) is recorded as 19.33%; in data set [2] (listed as sample B) it was 19.3%. In addition, in data set [3], the Cytotoxicity result is recorded as “Not cytotoxic”. The Phototoxicity result in data set [4] is given as “Not phototoxic”.
